The target in one series is T1, OATP1B1 (Homo sapiens, UniProt Q9Y6L6).
T1 sequence (Q9Y6L6 1-691): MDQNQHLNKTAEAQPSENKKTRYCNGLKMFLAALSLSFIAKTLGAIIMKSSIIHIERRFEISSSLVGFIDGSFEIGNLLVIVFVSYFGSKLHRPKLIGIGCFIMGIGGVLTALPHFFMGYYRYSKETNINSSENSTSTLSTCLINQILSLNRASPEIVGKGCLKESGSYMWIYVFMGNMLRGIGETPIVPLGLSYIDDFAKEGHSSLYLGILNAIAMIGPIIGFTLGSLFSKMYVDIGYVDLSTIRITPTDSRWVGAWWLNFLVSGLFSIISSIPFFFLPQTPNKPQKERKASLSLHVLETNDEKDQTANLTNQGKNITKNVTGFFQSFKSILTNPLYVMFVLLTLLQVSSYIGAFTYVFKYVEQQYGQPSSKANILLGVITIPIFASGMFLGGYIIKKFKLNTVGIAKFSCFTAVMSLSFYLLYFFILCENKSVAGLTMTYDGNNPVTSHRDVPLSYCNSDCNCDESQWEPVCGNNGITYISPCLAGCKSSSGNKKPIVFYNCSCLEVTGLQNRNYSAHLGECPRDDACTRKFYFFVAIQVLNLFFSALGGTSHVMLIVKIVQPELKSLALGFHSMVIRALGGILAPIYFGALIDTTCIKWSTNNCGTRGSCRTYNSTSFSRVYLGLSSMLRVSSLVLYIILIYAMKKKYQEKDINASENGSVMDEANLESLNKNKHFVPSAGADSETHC
Description: Inhibition of OATP1B1-mediated [3H]estrone-3-sulfate uptake in HEK293-OATP1B1 cells. As for the experimental part: (§1) HEK293 cells overexpressing the OCT1, OCT2, OAT1, OAT3, OATP1B1, and OATP1B3 transporters (HEK293-OCT1, -OCT2, -OAT1, -OAT3, -OATP1B1, and -OATP1B3, respectively) and HEK293-mock cells (Corning Life Sciences; Woburn, MA, USA) were used and characterized as previously described.
(§2) HEK293 cells overexpressing drug transporters and HEK293-mock cells were seeded in poly-D-lysine-coated 96-well plates at a density of 10^5 cells/well and were cultured in DMEM supplemented with 10% FBS, 5 mM non-essential amino acids, and 2 mM sodium butyrate in a humidified atmosphere with 8% CO2 at 37 °C.
(§3) To examine the effects of ginsenosides and typical inhibitors on transporter activity, aliquots (100 μL) of HBSS containing the probe substrate and ginsenosides or typical inhibitors were added to the cells after aspirating pre-incubated HBSS. The concentrations and probe substrates were as follows: 0.1 μM [^3H]MPP^+ for OCT1 and OCT2, 0.1 μM [^3H]PAH for OAT1, 0.1 μM [^3H]ES for OAT3 and OATP1B1, and 0.1 μM [^3H]EG for OATP1B3. […] Then the uptake of probe substrates into HEK293-mock cells and HEK293-OCT1, -OCT2, -OAT1, -OAT3, -OATP1B1, and -OATP1B3 cells in the presence and absence of typical inhibitor or each ginsenoside with previously described concentration range was measured for 5 min. Immediately after placing the plates on ice, the cells were washed three times with 100 μL of ice-cold HBSS, followed by lysing with 50 μL of 10% SDS solution and mixing with 150 μL of Optiphase cocktail solution (Perkin Elmer Inc., Boston, MA, USA). The radioactivity of the probe substrates in the cells was determined using a liquid scintillation counter.
(§4) In the inhibition studies, the uptake rate of substrate by HEK293 cells overexpressing the respective transporters was used as the control (100%) and the uptake rate of substrates in the presence of typical inhibitors or ginsenosides expressed as a percentage of the control. The inhibition data were fitted to an inhibitory effect model using Sigma plot (version 10.0; Systat Software Inc., San Jose, CA, USA). IC50 value indicated the half-maximal inhibitory concentration of the inhibitor.

The next series concerns the target T2, OATP1B3 (Homo sapiens, UniProt Q9NPD5).
T2 sequence (Q9NPD5 1-702): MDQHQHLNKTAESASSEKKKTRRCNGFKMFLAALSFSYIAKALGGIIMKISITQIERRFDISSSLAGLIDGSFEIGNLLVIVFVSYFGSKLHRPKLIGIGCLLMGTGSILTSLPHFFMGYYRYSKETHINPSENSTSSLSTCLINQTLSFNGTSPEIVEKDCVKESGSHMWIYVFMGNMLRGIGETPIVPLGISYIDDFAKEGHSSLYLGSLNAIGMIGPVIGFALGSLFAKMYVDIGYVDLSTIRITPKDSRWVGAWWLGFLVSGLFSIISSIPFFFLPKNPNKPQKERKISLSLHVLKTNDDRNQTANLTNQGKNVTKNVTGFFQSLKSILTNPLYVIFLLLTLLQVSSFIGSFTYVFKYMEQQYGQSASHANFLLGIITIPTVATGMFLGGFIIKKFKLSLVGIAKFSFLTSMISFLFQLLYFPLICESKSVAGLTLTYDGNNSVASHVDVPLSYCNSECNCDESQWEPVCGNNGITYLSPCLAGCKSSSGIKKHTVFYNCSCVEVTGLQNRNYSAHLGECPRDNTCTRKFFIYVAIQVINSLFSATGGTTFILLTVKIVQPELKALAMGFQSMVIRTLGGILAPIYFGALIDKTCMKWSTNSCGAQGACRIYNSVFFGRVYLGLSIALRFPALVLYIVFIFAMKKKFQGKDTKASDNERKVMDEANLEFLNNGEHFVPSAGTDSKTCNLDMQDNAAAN
Description: Inhibition of OATP1B3-mediated [3H]estradiol-17β-D-glucuronide uptake in HEK293-OATP1B3 cells. As for the experimental part:
as §1, §2, §3, §4

Series [1] is described as follows: Plasma pharmacokinetics of ginsenosides in rats after 1-week repeated RGE. To be noted: LC-MS/MS, after RGE 1.5 g/kg/day po for 1 week. As for the experimental part: The rats were randomly divided into the control and RGE groups. The RGE group received a RGE suspension (1.5 g/mL/kg/day, in distilled water) for 7 days via oral gavage. The control group received distilled water for 7 days via oral gavage. After 1 h following the last RGE treatment, valsartan was injected intravenously to both groups via the tail vein at 1 mg/mL/kg (dissolved in DMSO: saline = 2:8, v/v). […] After centrifugation of the blood samples at 16,000× g for 10 min, aliquots (50 μL each) of plasma samples were stored at −80 °C until the analysis of ginsenosides and valsartan.
The residue was reconstituted with 100 μL of 70% methanol consisting of 0.1% formic acid. An aliquot (20 μL) from the sample was injected into the LC-MS/MS system.
After freezing the aqueous layer at −80 °C for 2 h, the upper organic layer was transferred to a clean tube and evaporated to dryness. […] An aliquot (20 μL) from the sample was injected into the LC-MS/MS system. The samples were eluted through an Omega Polar C18 column (2.1 mm × 100 mm, 3 µm particle size) (Phenomenex, Torrance, CA, USA) using a mobile phase consisting of 0.1% formic acid in water: 0.1% formic acid in methanol (15:85, v/v) at a flow rate of 0.2 mL/min.
Pharmacokinetic parameters were calculated from plasma concentration-time profile using non-compartment analysis of WinNonlin (version 5.1; Pharsights, Cary, NC, USA). The statistical significance was assessed by t-test using Statistical Package for the Social Sciences (version 24.0; SPSS Inc., Chicago, IL, USA).

The mark [2] stands for this setting: HEK293-OATP1B1, 0.1 μM [3H]ES uptake, 5 min.
Setting [3] is: HEK293-OATP1B3, 0.1 μM [3H]EG uptake, 5 min.

Read-outs that look alike come from different tables or passages of the source.

As a reminder, the IC50 is the concentration at which inhibition is half-maximal. For `CC(C)=CCC[C@](C)(O[C@@H]1O[C@H](CO)[C@@H](O)[C@H](O)[C@H]1O)[C@H]1CC[C@]2(C)[C@@H]1[C@H](O)C[C@@H]1[C@@]3(C)CC[C@H](O)C(C)(C)[C@@H]3[C@@H](O[C@@H]3O[C@H](CO)[C@@H](O)[C@H](O)[C@H]3O[C@@H]3O[C@@H](C)[C@H](O)[C@@H](O)[C@H]3O)C[C@]12C` [Re, ginsenoside Re], the IC50 at OATP1B1 and at OATP1B3 was over 100 µM in each case. Also, the “IC50 OATP1B1” value against OATP1B1 (setting [2]) was “did not inhibit”. Moreover, the “IC50 OATP1B3” value against OATP1B3 (setting [3]) is given as “did not inhibit”. In addition, in series [1], the “detection in rat plasma” value is given as “not detected”.
As for `CC(C)=CCC[C@](C)(O[C@@H]1O[C@H](CO)[C@@H](O)[C@H](O)[C@H]1O)[C@H]1CC[C@]2(C)[C@@H]1[C@H](O)C[C@@H]1[C@@]3(C)CC[C@H](O)C(C)(C)[C@@H]3[C@@H](O[C@@H]3O[C@H](CO)[C@@H](O)[C@H](O)[C@H]3O)C[C@]12C` [Rg1, ginsenoside Rg1], the IC50 at OATP1B1 and against OATP1B3 was over 100 µM in each case. The “IC50 OATP1B1” value against OATP1B1 (setting [2]) is “did not inhibit”. The “IC50 OATP1B3” value on OATP1B3 (setting [3]) is “did not inhibit”. In addition, in series [1], the “detection in rat plasma” value is listed as “not detected”.
`CC(C)=CCC[C@](C)(O)[C@H]1CC[C@]2(C)[C@@H]1[C@H](O)C[C@@H]1[C@@]3(C)CC[C@H](O[C@@H]4O[C@H](CO)[C@@H](O)[C@H](O)[C@H]4O[C@@H]4O[C@H](CO)[C@@H](O)[C@H](O)[C@H]4O)C(C)(C)[C@@H]3CC[C@]12C` [Rg3, ginsenoside Rg3]: the IC50 is 7.99 µM on OATP1B1 (read-out: IC50 OATP1B1, HEK293-OATP1B1, 0.1 μM [3H]ES uptake, 5 min) and 5.13 µM at OATP1B3 (read-out: IC50 OATP1B3, HEK293-OATP1B3, 0.1 μM [3H]EG uptake, 5 min). In addition, in series [1], the “detection in rat plasma” value is on record as “not detected”.
As for `CC(C)=CCC[C@](C)(O)[C@H]1CC[C@]2(C)[C@@H]1[C@H](O)C[C@@H]1[C@@]3(C)CC[C@H](O)C(C)(C)[C@@H]3[C@@H](O[C@@H]3O[C@H](CO)[C@@H](O)[C@H](O)[C@H]3O)C[C@]12C` [Rh1, ginsenoside Rh1], the 50% inhibitory concentration (IC50) against OATP1B1 and at OATP1B3 was over 100 µM in each case. The “IC50 OATP1B1” value against OATP1B1 (setting [2]) was “did not inhibit”. Besides, the “IC50 OATP1B3” value against OATP1B3 (setting [3]) was “did not inhibit”. Further, in series [1], the “detection in rat plasma” value was “not detected”.
Regarding `CC(C)=CCC[C@](C)(O)[C@H]1CC[C@]2(C)[C@@H]1[C@H](O)C[C@@H]1[C@@]3(C)CC[C@H](O[C@@H]4O[C@H](CO)[C@@H](O)[C@H](O)[C@H]4O)C(C)(C)[C@@H]3CC[C@]12C` [Rh2, ginsenoside Rh2], the IC50 against OATP1B1 is 22.3 µM; against OATP1B3, 30.8 µM. Further, the “detection in rat plasma” value in series [1] is reported as “not detected”.

(Values after article PMC7037682, “Herb–Drug Interaction of Red Ginseng Extract and Ginsenoside Rc with Valsartan in Rats” (Molecules, 2020).)
